# Values quoted from earlier work in US7875460B2, “Method for determining the effectiveness of stabilized chlorine dioxide in a mouth rinse” (priority 2007, dated 2011).
# Key:
# [1] = system: bacteria; conditions: exposures as short as 10 seconds
# [2] = in vivo
# [3] = system: Sprague-Dawley rats
structure (smiles),measurement,setting,value
[O][Cl+][O-] [chlorine dioxide],reduction in bacteria,[1],dramatic reduction in bacteria
same,decrease in VSCs in expired mouth air,[2],remarkable decrease in VSCs
same,"effects on haematology, blood biochemistry, or organ weights","[3]; 0, 2, 4, 6, 12 mg/kg/day (male) and 0, 2, 5, 8, 15 mg/kg/day (female) in drinking-water for 90 days",no toxicologically significant effects
same,target tissue identified: nasal cavity findings,[3]; drinking-water for 90 days,"increased incidence of goblet cell hyperplasia, squamous metaplasia, and inflammatory responses"
same,deaths,[3]; exposures as high as 11.5 mg/kg/day (male) and 14.9 mg/kg/day (female),no deaths were reported
